Results reported in US20230203060A1 (GENFLEET THERAPEUTICS (SHANGHAI) INC., priority 2020, published 2023).
Where a name gives a salt, the structure may show the parent alone.

Key:
[1] = test system: phosphorylated ERK downstream of KRAS G12C in MIA PaCa2 cells; assay: Cell p-ERK detection experiment (HTRF) in MIA PaCa2; type: cell-based, human; conditions: Homo sapiens, MIA PaCa-2, 2 h, MIA PaCa2 cells, 2 hours with compound, Advance ERK phospho-T202/Y204 HTRF kit; read-out: p-ERK IC50
Text: Raw materials and instruments: MIA PaCa-2 purchased from ATCC; article number: CRL-1420; batch number: 63143594; DMEM purchased from Gibco; article number: 11995-065; batch number: 2186878; FBS purchased from Gibco; article number: 10099-141; batch number: 2109290CP; Horse serum purchased from Gibco; article number: 16050-122; batch number: 1818976; Trypsin-EDTA purchased from Gibco; article number: 25200-072; batch number: 2085552; PS purchased from Gibco; article number: 15140-122; batch number: 2145451; DMSO purchased from VWR AMRESCO; article number: 0231-500ML; batch number: 0457C072; 96-well cell culture plate purchased from Corning; article number: 3599; batch number: 22718601; white opaque 96-well plate purchased from Cisbio; article number: 66PL96025; batch number: N°05; Advance ERK phospho-T202/Y204 kit purchased from Cisbio; article number: 64AERPEH; batch number: 11D; microplate reader purchased from PerkinElmer; model: Envision MLD2105-0020; equipment number 1050369.
MIA PaCa2 was a KRAS G12C mutant human pancreatic cancer cell line cultured in 10% FBS+2.5% Horse serum DMEM culture medium. Cells at logarithmic growth stage were taken, digested with trypsin-EDTA, then collected and counted, and 2.5E4 cells were inoculated in a 96-well cell culture plate and cultured overnight. A 3.16-fold gradient concentration stock solution of 1000× compound was prepared with DMSO, and diluted 200-fold to 5× compound stock solution with culture medium. On the second day after cell inoculation, 5× compound stock solution was added to each cell culture well, with a final concentration of 1× and a DMSO content of 0.1%. DMSO was used as experimental control (control). After the compound was added and cultured for two hours, the residual culture medium was removed. 50 μL of cell lysate (from Advance ERK phospho-T202/Y204 kit, the same below) was added to each well, mixed well and incubated for 30 minutes, and then 16 μL of the mixed solution was transferred to a white opaque 96-well plate, and 16 μL of cell lysate was added to the blank wells. After the transfer was completed, 4 μL of p-ERK HTRF antibody (from Advance ERK phospho-T202/Y204 kit) mixture was added to each well, incubated for 4 hours, and the fluorescence value was read with the microplate reader. The inhibition rate of the compound IR (%)=(RLU control -RLU compound)/(RLU control-RLU blank)×100% was calculated. The gradient dilution concentration of the compound and the corresponding cell proliferation inhibition rate were fitted by Prism 8 four-parameter method, and the IC50 value was calculated. The compounds prepared in the above embodiments of the present disclosure have inhibitory activity of 0.0001 μM to 1 μM on the phosphorylated ERK level downstream of the cell channel of KRAS G12C protein mutant; some compounds have inhibitory activity of 0.001 μM to 1 μM or 0.001 μM to 0.5 μM on phosphorylated ERK level downstream of cell channel of KRAS G12C protein mutant.

[2] = test system: KRAS G12C mutant NCI-H358 cells; assay: Cell proliferation inhibition experiment, 3D spheroid, CellTiter-Glo, NCI-H358; type: cell-based, human; conditions: Homo sapiens, NCI-H358, 120 h, NCI-H358 (KRAS G12C mutant) 3D spheroid, 5 days with compound, CellTiter-Glo; read-out: H358 IC50
How it was run: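 First, H358 (800/well) or A549 (400/well) cells are plated in 2% FBS medium and left overnight to form spheroids. Next, compound is added as a 3.16-fold gradient at 0.1% DMSO for 5 days. Finally, CellTiter-Glo signal is read and IC50 derived by four-parameter fitting.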

Structure (SMILES)	IC50 [1]	IC50 [2]
C=CC(=O)N1CCN2C(=O)c3c(N4CCN(C5CC5)C[C@@H]4C)nc(-c4c(O)cccc4F)c(Cl)c3OC[C@H]2C1 [Z312-1, (6aR)-8-acryloyl-4-chloro-1-((S)-4-cyclopropyl-2-methylpiperazin-1-yl)-3-(2-fluoro-6-hydroxyphenyl)-6,6a,7,8,9,10-hexahydro-12H-pyrazino[2,1-c]pyrido[3,4-f][1,4]oxazepin-12-one]	194 nM	13.5 nM
C=CC(=O)N1CCN2C(=O)c3c(N4CC[C@H](OC)C4(C)C)nc(-c4c(O)cccc4F)c(F)c3OC[C@H]2C1 (single isomer, unassigned) [Z327-2]	172 nM	8.4 nM
C=CC(=O)N1CCN2C(=O)c3c(N4CCN(C)[C@H](C)[C@@H]4C)nc(-c4c(O)cccc4F)c(Cl)c3OC[C@H]2C1 (single isomer, unassigned) [Z308a-1]	71 nM	7.1 nM
C=CC(=O)N1CCN2C(=O)c3c(N4CC[C@H](OC)C4(C)C)nc(-c4c(O)cccc4F)c(Cl)c3OC[C@H]2C1 (single isomer, unassigned) [Z241a-1]	33 nM	1.4 nM
C=CC(=O)N1CCN2C(=O)c3c(N4C[C@@H](OC)CC4(C)C)nc(-c4c(O)cccc4F)c(Cl)c3OC[C@H]2C1 (single isomer, unassigned) [Z244-1]	31 nM	1.9 nM
C=CC(=O)N1CCN2C(=O)c3c(N4C[C@H](OC)CC4(C)C)nc(-c4c(O)cccc4F)c(F)c3OC[C@H]2C1 (single isomer, unassigned) [Z256a-2]	17 nM	1.4 nM
C=CC(=O)N1CCN2C(=O)c3c(N4C[C@@H](O)CC4(C)C)nc(-c4c(O)ccc(Cl)c4F)c(F)c3OC[C@H]2C1 (single isomer, unassigned) [Z340-1]	59 nM	5.2 nM
C=CC(=O)N1CCN2C(=O)c3c(N4C[C@@H](N(C)C)C[C@@H]4C)nc(-c4c(O)cccc4F)c(Cl)c3OC[C@H]2C1 [Z237-2, (6aR)-8-acryloyl-4-chloro-1-((2S,4S)-4-(dimethylamino)-2-methylpyrrolidin-1-yl)-3-(2-fluoro-6-hydroxyphenyl)-6,6a,7,8,9,10-hexahydro-12H-pyrazino[2,1-c]pyrido[3,4-f][1,4]oxazepin-12-one]	30 nM	6 nM
C=CC(=O)N1CCN2C(=O)c3c(N4C[C@@H](O)CC4(C)C)nc(-c4c(O)cccc4F)c(F)c3OC[C@H]2C1 (single isomer, unassigned) [Z256-1]	20 nM	2.2 nM
C=CC(=O)N1CCN2C(=O)c3c(N4CCO[C@](C)(COC)C4)nc(-c4c(O)cccc4F)c(Cl)c3OC[C@H]2C1 (single isomer, unassigned) [Z332-1]	130 nM	16 nM
C=CC(=O)N1CCN2C(=O)c3c(N4CCN(S(C)(=O)=O)C[C@@H]4C)nc(-c4c(O)cccc4F)c(Cl)c3OC[C@H]2C1 [Z318-1, (6aR)-8-acryloyl-1-((S)-2-methyl-4-(methylsulfonyl)piperazin-1-yl)-4-chloro-3-(2-fluoro-6-hydroxyphenyl)-6,6a,7,8,9,10-hexahydro-12H-pyrazino[2,1-c]pyrido[3,4-f][1,4]oxazepin-12-one]	87 nM	5.7 nM
C=CC(=O)N1CCN2C(=O)c3c(N4Cc5cn(C)nc5[C@H]4C)nc(-c4c(O)cccc4F)c(Cl)c3OC[C@H]2C1 (single isomer, unassigned) [Z291-1S, trifluoroacetate]	89 nM	18.4 nM

The next lines start with the values.

IC50 [1]	IC50 [2]	Structure (SMILES)
325 nM	29 nM	C=CC(=O)N1CCN2C(=O)c3c(N4CCC(C)(C)C4)nc(-c4c(O)cccc4F)c(Cl)c3OC[C@H]2C1 [Z21, (6aR)-8-acryloyl-4-chloro-1-(3,3-dimethylpyrrolidin-1-yl)-3-(2-fluoro-6-hydroxyphenyl)-6,6a,7,8,9,10-hexahydro-12H-pyrazino[2,1-c]pyrido[3,4-f][1,4]oxazepin-12-one]
16 nM	2.1 nM	C=CC(=O)N1CCN2C(=O)c3c(N4CC(C#N)CC4(C)C)nc(-c4c(O)cccc4F)c(Cl)c3OC[C@H]2C1 (stereo partly drawn) [Z275, (6aR)-8-acryloyl-1-(4-cyano-2,2-dimethylpyrrolidin-1-yl)-4-chloro-3-(2-fluoro-6-hydroxyphenyl)-6,6a,7,8,9,10-hexahydro-12H-pyrazino[2,1-c]pyrido[3,4-f][1,4]oxazepin-12-one]
22 nM	2.4 nM	C=CC(=O)N1CCN2C(=O)c3c(N4CC(CO)CC4(C)C)nc(-c4c(O)cccc4F)c(Cl)c3OC[C@H]2C1 (stereo partly drawn) [Z240, (6aR)-8-acryloyl-4-chloro-3-(2-fluoro-6-hydroxyphenyl)-1-(4-(hydroxymethyl)-2,2-dimethylpyrrolidin-1-yl)-6,6a,7,8,9,10-hexahydro-12H-pyrazino[2,1-c]pyrido[3,4-f][1,4]oxazepin-12-one]
29 nM	3.6 nM	C=CC(=O)N1CCN2C(=O)c3c(N4CCN(C)C(C)C4C)nc(-c4c(O)cccc4F)c(Cl)c3OC[C@H]2C1 (stereo partly drawn) [Z369, (6aR)-8-acryloyl-4-chloro-3-(2-fluoro-6-hydroxyphenyl)-1-(2,3,4-trimethylpiperazin-1-yl)-6,6a,7,8,9,10-hexahydro-12H-pyrazino[2,1-c]pyrido[3,4-f][1,4]oxazepin-12-one]
22 nM	2.4 nM	C=CC(=O)N1CCN2C(=O)c3c(N4C[C@@H](OC)C[C@@H]4C)nc(-c4c(O)cccc4F)c(Cl)c3OC[C@H]2C1 [Z260a, (6aR)-8-acryloyl-4-chloro-3-(2-fluoro-6-hydroxyphenyl)-1-((2S,4S)-4-methoxy-2-methylpyrrolidin-1-yl)-6,6a,7,8,9,10-hexahydro-12H-pyrazino[2,1-c]pyrido[3,4-f][1,4]oxazepin-12-one]
26 nM	2 nM	C=CC(=O)N1CCN2C(=O)c3c(N4CCCC4(C)C)nc(-c4c(O)cccc4F)c(Cl)c3OC[C@H]2C1 [Z22, (6aR)-8-acryloyl-4-chloro-1-(2,2-dimethylpyrrolidin-1-yl)-3-(2-fluoro-6-hydroxyphenyl)-6,6a,7,8,9,10-hexahydro-12H-pyrazino[2,1-c]pyrido[3,4-f][1,4]oxazepin-12-one]
130 nM	11 nM	C=CC(=O)N1CCN2C(=O)c3c(N4CC(C#N)CC4(C)C)nc(-c4c(O)cccc4F)c(F)c3OC[C@H]2C1 (some centres unmarked) [Z335]
104 nM	10.6 nM	C=CC(=O)N1CCN2C(=O)c3c(N4Cc5cn(C)nc5C4(C)C)nc(-c4c(O)cccc4F)c(Cl)c3OC[C@H]2C1 [Z310, (6aR)-8-acryloyl-1-(2,6,6-trimethylpyrrolo[3,4-c]pyrazol-5(2H,4H,6H)-yl)-4-chloro-3-(2-fluoro-6-hydroxyphenyl)-6,6a,7,8,9,10-hexahydro-12H-pyrazino[2,1-c]pyrido[3,4-f][1,4]oxazepin-12-one]
19 nM	2.2 nM	C=CC(=O)N1CCN2C(=O)c3c(N4CC(C)(O)CC4(C)C)nc(-c4c(O)cccc4F)c(Cl)c3OC[C@H]2C1 (stereo partly drawn) [Z243, (6aR)-8-acryloyl-4-chloro-3-(2-fluoro-6-hydroxyphenyl)-1-(4-hydroxy-2,2,4-trimethylpyrrolidin-1-yl)-6,6a,7,8,9,10-hexahydro-12H-pyrazino[2,1-c]pyrido[3,4-f][1,4]oxazepin-12-one]
19 nM	2.9 nM	C=CC(=O)N1CCN2C(=O)c3c(N4CC(OC)CC4(C)C)nc(-c4c(O)cccc4F)c(Cl)c3OC[C@H]2C1 (stereo partly drawn) [Z244, (6aR)-8-acryloyl-4-chloro-3-(2-fluoro-6-hydroxyphenyl)-1-(4-methoxy-2,2-dimethylpyrrolidin-1-yl)-12-oxo-6,6a,7,8,9,10-hexahydro-12H-pyrazino[2,1-c]pyrido[3,4-f][1,4]oxazepin-12-one]
